Assay results taken from patent publication US7470807B2, “Substituted arylalkanoic acid derivatives and use thereof” (Asahi Kasei Pharma Corporation, priority 2003, dated 2008).

Tests used:
[1] = test system: bleomycin-induced pulmonary fibrosis; assay: Bleomycin-induced rat pulmonary fibrosis model; assay type: in vivo; details: for fibrosing in groups administered with known type 4 PLA2 inhibitory compounds: bleomycin model, intraperitoneally or orally administered in a similar manner; for median of the fibrosing score: bleomycin intratracheal, oral 10, 30, 100 and 300 mg/kg once or twice a day for 21 days, positive control ++ to +++
Method: A suppressing effect on pulmonary fibrosing in a bleomycin-induced rat pulmonary fibrosis model, which is a pathological model of pulmonary fibrosis, was studied by the following method. Groups of BN female rats (7-week old) each consisting of seven rats were used for the test. The test animals were anesthetized with ketamine and xylazine, and the tracheae were exposed. Then, a 125 μg/0.1 ml solution of bleomycin (Nippon Kayaku) dissolved in physiological saline (Ohtsuka Pharmaceutical Factory) was injected into the tracheae by using a syringe. The negative control group was administered with 0.1 ml of saline into the tracheae.
Each test compound was suspended or dissolved in purified water containing 0.5% methylcellulose, and orally administered to the test animals at doses of 10, 30, 100 and 300 mg/5 ml/kg. The administration of the test compounds was started from the day of the bleomycin administration and performed once or twice a day for 21 days. The positive control group was administered with purified water containing 0.5% methylcellulose not added with any test compound in a similar manner. On the 21st day after the administration of bleomycin, the rats were sacrificed, and lungs were fixed with neutral buffered formalin to prepare histopathological samples. Staining of the histopathological samples was performed by the Azan method.
The histopathological samples of lungs were examined, and degree of fibrosing was represented with the following scores on the basis of formation of granulation tissues and proliferation of collagen fibers as indicators, i.e., −: no abnormality, ±: extremely mild change, +: mild change, ++: moderate change, and +++: significant change.

[2] = test system: pulmonary fibrosis; details: clinical tests in the United States and Japan; cited from earlier work

Compound | fibrosing in groups administered with known type 4 PLA2 inhibitory compounds [1] | median of the fibrosing score [1] | also measured
O=C1NC(=O)C(=Cc2ccc(C(=O)NCC3CC(SC(c4ccccc4)(c4ccccc4)c4ccccc4)CN3C(=O)c3ccccc3C(=O)c3ccc(F)cc3F)cc2)S1 (stereo not drawn) [N-{1-[2-(2,4-difluorobenzoyl)benzoyl]-4-tritylsulfanylpyrrolidin-2-ylmethyl}-4-(2,4-dioxothiazolidin-5-ylidenemethyl)benzoic acid amide] | mild |  | 
COc1cc(C(=O)O)ccc1Cc1cn(C(c2ccccc2)c2ccccc2)c2cc(Cl)ccc12 [4-(1-benzhydryl-6-chloro-1H-indol-3-ylmethyl)-3-methoxybenzoic acid, reference compound] | mild |  | 
3-[4-cyclopentyloxy-3-(1H-indole-5-yl)phenyl]propionic acid [G-4] |  | ± to + | 
O=C(CCc1ccc(OCCS(=O)(=O)CCOC(c2ccc(Cl)cc2)c2ccc(Cl)cc2)cc1)C(F)(F)F [4-{4-[2-(2-[bis(4-chlorophenyl)methoxy]ethylsulfonyl)ethoxy]phenyl}-1,1,1-trifluoro-2-butanone] | mild |  | 
Cc1ccc(=O)n(-c2ccccc2)c1 [pirfenidone] |  |  | effect against pulmonary fibrosis in clinical tests [2]: effective
3-[4-cyclopentyloxy-3-(naphthalen-2-yl)phenyl]propionic acid [G-2] |  | ± to + | 
